Values of other authors as cited in patent US5716935A, “Use of antiotensin II analogs in tissue repair” (University of Southern California, priority 1996, dated 1998).

Experiments:
wound tissue = settings: applied to wound tissue; U.S. Pat. No. 5,015,629
aminopeptidase = settings: reported in literature

cleavage by aminopeptidase (aminopeptidase) | Molecule | rate of wound healing (wound tissue)
– | Asp-Arg-Val-Tyr-Ile-His-Pro-Phe [angiotensin II, octapeptide present in humans and other species; known pressor agent] | significantly increases
resistant | CC[C@H](C)[C@H](NC(=O)[C@H](Cc1ccc(O)cc1)NC(=O)[C@@H](NC(=O)[C@H](CCCNC(=N)N)NC(=O)CNC)C(C)C)C(=O)N[C@@H](Cc1cnc[nH]1)C(=O)N1CCC[C@H]1C(=O)N[C@@H](Cc1ccccc1)C(=O)O [Analog 4, Sar-Arg-Val-Tyr-Ile-His-Pro-Phe] | –
